Data published in BindingDB's records for doi:10.1021/acs.jmedchem.6b00247 (Sanford Burnham Prebys Medical Discovery Institute, 2016).

Test: Antagonist activity against HIV-1 Vif in human CEM cells assessed as inhibition of viral infection

COc1ccccc1NC(=O)c1ccccc1Sc1ccc([N+](=O)[O-])cc1
IC50: 4.5 µM
